According to US10280165B2, “Pyridopyrimidinones and methods of use thereof” (Genentech, Inc., priority 2015, dated 2019):

Target: HEK cells stably transfected with tetracycline inducible hNR1 and hNR2A (Homo sapiens (Human), UniProt Q05586+Q12879)
Assay: Assay 1: Cell-Based Assay (cytosolic calcium, positive allosteric modulation)
Details: for Emax: HEK293, scaled relative to 100 μM L-glutamate maximal response (100%) and 0 μM L-glutamate (0%), with 30 μM glycine and 300 nM L-glutamate, read-out: Max %; for EC50: with 30 μM glycine and 300 nM L-glutamate (EC30), given for compounds reaching maximal response plateaus
Protocol: Assay 1: Cell-Based Assay
HEK cells stably transfected with tetracycline inducible hNR1 and hNR2A were seeded into clear bottom 384 well poly-D-lysine coated plates (2.5×10^4 cells per well) in Minimum Essential Media (MEM; without L-) including 7.5 μg mL doxycycline and 500 μM (+)-ketamine. The cells were incubated at 37° C. in 5% CO2 for 24 h. For measurement of changes in cytosolic calcium, the seeding media was removed and the cells incubated at 37° C. for 60 min with 1× Becton Dickinson Calcium Assay Kit reagent in Hanks Balanced Salt Solution (HBSS; w/o magnesium, including 1.8 mM calcium, 0.65 mg ml^−1 probenecid and 10 μM (+)-ketamine, pH 7.15) then allowed to equilibrate to rt for 30 min. Concentration-effect curves to Positive Allosteric Modulators (PAMs) were constructed by adding different concentrations (with 30 μM glycine and 300 nM L-glutamate (EC30)) to different wells in HBSS. Compounds were added after a 10 second baseline read and maximum level of relative fluorescence units (RFU) was measured over a 5 min period. Responses were scaled relative to 100 μM L-glutamate maximal response (100%) and 0 μM L-glutamate (0%). EC50 values are provided for compounds reaching maximal response plateaus, and the max % (EC50 (--)) only if no plateau was reached.
A four-parameter Hill equation was fitted to individual concentration-effect curves:
[formula] in which Y, S0, Sinf, AC50, n and c were effect, lower-asymptote, upper-asymptote, mid-point location, slope parameter, and concentration respectively.

Sequence of HEK cells stably transfected with tetracycline inducible hNR1 and hNR2A (Q12879 23-1464, other chains not shown): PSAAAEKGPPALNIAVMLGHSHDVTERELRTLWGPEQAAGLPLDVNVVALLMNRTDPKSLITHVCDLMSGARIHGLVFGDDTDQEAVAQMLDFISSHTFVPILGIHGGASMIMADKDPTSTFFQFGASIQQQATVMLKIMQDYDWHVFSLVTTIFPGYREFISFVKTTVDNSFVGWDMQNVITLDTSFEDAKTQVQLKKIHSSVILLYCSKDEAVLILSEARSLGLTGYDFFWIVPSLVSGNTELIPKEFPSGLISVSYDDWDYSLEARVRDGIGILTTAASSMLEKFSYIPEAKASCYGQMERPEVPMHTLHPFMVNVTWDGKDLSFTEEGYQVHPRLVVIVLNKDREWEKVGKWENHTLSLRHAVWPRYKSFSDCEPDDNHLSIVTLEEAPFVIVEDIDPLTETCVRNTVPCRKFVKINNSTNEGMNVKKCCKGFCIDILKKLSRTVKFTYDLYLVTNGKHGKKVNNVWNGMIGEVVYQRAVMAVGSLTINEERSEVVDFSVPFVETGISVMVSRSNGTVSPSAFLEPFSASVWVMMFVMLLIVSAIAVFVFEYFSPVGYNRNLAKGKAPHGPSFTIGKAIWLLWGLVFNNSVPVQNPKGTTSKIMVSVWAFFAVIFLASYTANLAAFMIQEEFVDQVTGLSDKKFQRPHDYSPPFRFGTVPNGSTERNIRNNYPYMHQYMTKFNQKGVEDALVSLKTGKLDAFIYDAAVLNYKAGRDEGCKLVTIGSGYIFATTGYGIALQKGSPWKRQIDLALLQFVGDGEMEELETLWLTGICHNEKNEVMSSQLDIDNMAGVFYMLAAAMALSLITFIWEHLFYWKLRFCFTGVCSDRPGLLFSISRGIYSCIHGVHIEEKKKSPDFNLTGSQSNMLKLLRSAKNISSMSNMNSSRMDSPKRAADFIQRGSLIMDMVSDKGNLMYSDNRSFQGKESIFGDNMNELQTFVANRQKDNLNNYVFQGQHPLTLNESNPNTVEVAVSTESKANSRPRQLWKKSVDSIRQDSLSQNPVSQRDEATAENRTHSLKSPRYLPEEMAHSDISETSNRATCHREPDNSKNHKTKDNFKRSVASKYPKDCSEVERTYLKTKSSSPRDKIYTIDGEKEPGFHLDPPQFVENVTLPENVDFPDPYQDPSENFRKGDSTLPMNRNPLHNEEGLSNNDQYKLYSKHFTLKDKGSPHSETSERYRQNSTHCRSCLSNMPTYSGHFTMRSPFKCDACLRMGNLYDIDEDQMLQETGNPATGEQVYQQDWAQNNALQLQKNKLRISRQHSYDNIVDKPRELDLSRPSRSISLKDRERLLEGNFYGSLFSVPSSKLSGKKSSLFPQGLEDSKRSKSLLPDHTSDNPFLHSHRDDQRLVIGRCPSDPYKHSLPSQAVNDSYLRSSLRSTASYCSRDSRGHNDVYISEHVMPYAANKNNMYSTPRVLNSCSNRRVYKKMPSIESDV

## Cc1ccc2nc(Cn3nc(C(F)(F)F)cc3Cl)cc(=O)n2c1[C@@H]1C[C@H]1CO [Compound 36, 2-[[5-chloro-3-(trifluoromethyl)pyrazol-1-yl]methyl]-6-[(1R,2R)-2-(hydroxymethyl)cyclopropyl]-7-methyl-pyrido[1,2-a]pyrimidin-4-one]
  Emax: 135%
  EC50: 126 nM

## Cc1ccc2nc(Cn3nc(C(F)(F)F)cc3Cl)cc(=O)n2c1[C@H]1C[C@@H]1CO [Compound 37, 2-[[5-chloro-3-(trifluoromethyl)pyrazol-1-yl]methyl]-6-[(1S,2S)-2-(hydroxymethyl)cyclopropyl]-7-methyl-pyrido[1,2-a]pyrimidin-4-one]
  Emax: 127%

## Cc1cc([C@@H]2C[C@H]2C#N)n2c(=O)cc(Cn3nc(C(F)(F)F)cc3Cl)nc2c1 [Compound 38, (1R,2R)-2-(2-[[5-chloro-3-(trifluoromethyl)pyrazol-1-yl]methyl]-8-methyl-4-oxo-pyrido[1,2-a]pyrimidin-6-yl]cyclopropanecarbonitrile]
  Emax: 144%
  EC50: 39 nM

## Cc1cc([C@H]2C[C@@H]2C#N)n2c(=O)cc(Cn3nc(C(F)(F)F)cc3Cl)nc2c1 [Compound 39, (1S,2S)-2-[2-[[5-chloro-3-(trifluoromethyl)pyrazol-1-yl]methyl]-8-methyl-4-oxo-pyrido[1,2-a]pyrimidin-6-yl]cyclopropanecarbonitrile]
  Emax: 120%
  EC50: 951 nM

## N#C[C@@H]1C[C@H]1c1cccc2nc(Cn3nc(C(F)(F)F)cc3Cl)cc(=O)n12 [Compound 40, (1R,2R)-2-[2-[[5-chloro-3-(trifluoromethyl)pyrazol-1-yl]methyl]-4-oxo-pyrido[1,2-a]pyrimidin-6-yl]cyclopropanecarbonitrile]
  Emax: 148%

## N#C[C@H]1C[C@@H]1c1cccc2nc(Cn3nc(C(F)(F)F)cc3Cl)cc(=O)n12 [Compound 41, (1S,2S)-2-[2-[[5-chloro-3-(trifluoromethyl)pyrazol-1-yl]methyl]-4-oxo-pyrido[1,2-a]pyrimidin-6-yl]cyclopropanecarbonitrile]
  Emax: 111%
  EC50: 2900 nM

## N#C[C@H]1C[C@@H]1c1c(Cl)ccc2nc(Cn3nc(C(F)(F)F)cc3Cl)cc(=O)n12 [Compound 42, (1S,2S)-2-[7-chloro-2-[[5-chloro-3-(trifluoromethyl)pyrazol-1-yl]methyl]-4-oxo-pyrido[1,2-a]pyrimidin-6-yl]cyclopropanecarbonitrile]
  Emax: 110%
  EC50: 10600 nM

## Cc1cc(C2CC2C#N)n2c(=O)cc(Cn3nc(Cl)cc3C(F)(F)F)nc2c1 (stereo not shown) [Compound 43, 2-[2-[[3-chloro-5-(trifluoromethyl)pyrazol-1-yl]methyl]-8-methyl-4-oxo-pyrido[1,2-a]pyrimidin-6-yl]cyclopropanecarbonitrile]
  Emax: 145%
  EC50: 269 nM

## Cc1ccc2nc(Cn3nc(Cl)cc3C(F)(F)F)cc(=O)n2c1C1CC1C#N (stereo not shown) [Compound 44, 2-[2-[[3-chloro-5-(trifluoromethyl)pyrazol-1-yl]methyl]-7-methyl-4-oxo-pyrido[1,2-a]pyrimidin-6-yl]cyclopropanecarbonitrile]
  Emax: 158%
  EC50: 227 nM

## N#C[C@@H]1C[C@H]1c1c(F)ccc2nc(Cn3nc(C(F)(F)F)cc3Cl)cc(=O)n12 [Compound 45, (1R,2R)-2-[2-[[5-chloro-3-(trifluoromethyl)pyrazol-1-yl]methyl]-7-fluoro-4-oxo-pyrido[1,2-a]pyrimidin-6-yl]cyclopropanecarbonitrile]
  Emax: 151%

## N#C[C@H]1C[C@@H]1c1c(F)ccc2nc(Cn3nc(C(F)(F)F)cc3Cl)cc(=O)n12 [Compound 46, (1S,2S)-2-[2-[[5-chloro-3-(trifluoromethyl)pyrazol-1-yl]methyl]-7-fluoro-4-oxo-pyrido[1,2-a]pyrimidin-6-yl]cyclopropanecarbonitrile]
  Emax: 107%
  EC50: 3220 nM

## N#CC1CC1c1c(F)ccc2nc(Cn3nc(Cl)cc3C(F)(F)F)cc(=O)n12 (stereo not shown) [Compound 47, 2-[2-[[3-chloro-5-(trifluoromethyl)pyrazol-1-yl]methyl]-7-fluoro-4-oxo-pyrido[1,2-a]pyrimidin-6-yl]cyclopropanecarbonitrile]
  Emax: 200%
  EC50: 178 nM

## O=c1cc(Cn2nc(C(F)(F)F)cc2Cl)nc2ccccn12 [Compound 48, 2-[[5-chloro-3-(trifluoromethyl)pyrazol-1-yl]methyl]pyrido[1,2-a]pyrimidin-4-one]
  Emax: 73%
  EC50: 32400 nM

## CC(=O)c1cccc2nc(Cn3nc(C(F)(F)F)cc3Cl)cc(=O)n12 [Compound 49, 6-acetyl-2-[[5-chloro-3-(trifluoromethyl)pyrazol-1-yl]methyl]pyrido[1,2-a]pyrimidin-4-one]
  Emax: 126%
  EC50: 12300 nM

## CC(=O)c1c(C)ccc2nc(Cn3nc(C(F)(F)F)cc3Cl)cc(=O)n12 [Compound 50, 6-acetyl-2-[[5-chloro-3-(trifluoromethyl)pyrazol-1-yl]methyl]-7-methyl-pyrido[1,2-a]pyrimidin-4-one]
  Emax: 124%
  EC50: 7700 nM

## CC(=O)c1c(C)ccc2nc(Cn3nc(Cl)cc3C(F)(F)F)cc(=O)n12 [Compound 51, 6-acetyl-2-[[3-chloro-5-(trifluoromethyl)pyrazol-1-yl]methyl]-7-methyl-pyrido[1,2-a]pyrimidin-4-one]
  Emax: 114%
  EC50: 9100 nM

## COc1ccc2nc(Cn3nc(C(F)(F)F)cc3Cl)cc(=O)n2c1[C@@H]1C[C@H]1C#N [Compound 52, (1R,2R)-2-[2-[[5-chloro-3-(trifluoromethyl)pyrazol-1-yl]methyl]-7-methoxy-4-oxo-pyrido[1,2-a]pyrimidin-6-yl]cyclopropanecarbonitrile]
  Emax: 120%
  EC50: 79 nM

## COc1ccc2nc(Cn3nc(C(F)(F)F)cc3Cl)cc(=O)n2c1[C@H]1C[C@@H]1C#N [Compound 53, (1S,2S)-2-[2-[[5-chloro-3-(trifluoromethyl)pyrazol-1-yl]methyl]-7-methoxy-4-oxo-pyrido[1,2-a]pyrimidin-6-yl]cyclopropanecarbonitrile]
  Emax: 100%

## O=c1cc(Cn2nc(C(F)(F)F)cc2Cl)nc2cc(C(F)(F)F)cc(Cl)n12 [Compound 54, 6-chloro-2-[[5-chloro-3-(trifluoromethyl)pyrazol-1-yl]methyl]-8-(trifluoromethyl)pyrido[1,2-a]pyrimidin-4-one]
  Emax: 150%
  EC50: 24700 nM

## COc1ccc2nc(Cn3nc(Cl)cc3Cl)cc(=O)n2c1C1CC1C (stereo not shown) [Compound 55, 2-((3,5-dichloro-1H-pyrazol-1-yl)methyl)-7-methoxy-6-(2-methylcyclopropyl)-4H-pyrido[1,2-a]pyrimidin-4-one]
  Emax: 116%
  EC50: 102 nM

## N#C[C@@H]1C[C@H]1c1cc(C(F)(F)F)cc2nc(Cn3nc(C(F)(F)F)cc3Cl)cc(=O)n12 [Compound 56, (1R,2R)-2-(2-((5-chloro-3-(trifluoromethyl)-1H-pyrazol-1-yl)methyl)-4-oxo-8-(trifluoromethyl)-4H-pyrido[1,2-a]pyrimidin-6-yl)cyclopropanecarbonitrile]
  Emax: 142%
  EC50: 123 nM

## Cc1cc([C@@H]2C[C@H]2C#N)n2c(=O)cc(Cn3nc(Cl)cc3Cl)nc2c1 [Compound 57, (1R,2R)-2-(2-((3,5-dichloro-1H-pyrazol-1-yl)methyl)-8-methyl-4-oxo-4H-pyrido[1,2-a]pyrimidin-6-yl)cyclopropanecarbonitrile]
  Emax: 154%
  EC50: 222 nM
